row,Compound,melting point [°C]
1,N#Cc1nc2cc(Cl)c3cccnc3c2o1,214 to 215
2,O=c1ccn(C2CCCO2)c(=O)[nH]1 (centres undefined),99 to 101
3,CC(C)CN1CCN(CCc2ccc(-c3cccc(N)n3)cc2)CC1,85 to 88
4,CNc1nc(Cc2cc(OC)c(OC)c(OC)c2)nc2sc(C#N)c(C)c12,194 to 195
5,COc1c(Cl)ncnc1OCCc1ccc(Cl)cc1,70 to 71
6,O=C(O)c1cn2c3c(c(Cl)cc(Cl)c3c1=O)CCC2,300 to 304
7,COc1cc(N)c(Cl)cc1C(=O)NCC1CCN(CCCCCOCc2ccc(Cl)cc2)CC1,131 to 132
8,Cc1nccn1-c1ccc(-c2cnc([C@H](Cc3ccccn3)N(C=O)c3cc4ccccc4o3)n2C)cc1,167 to 171
9,COc1cc(Nc2c(C#N)cnc3c2C=C2N=C(NCCN4CCOCC4)N=C2C3)cc(OC)c1OC,175 to 178
10,Cc1cc(C)c(N2CCCCC2=S)c(Cl)c1,147 to 148
11,O=C(O)c1cn(C2CC2)c2c(F)c(N3CCC(O)C3)c(F)cc2c1=O (centres undefined),276 to 278
12,Nc1cc(Oc2ccc3c(C(=O)Nc4ccc(F)c(C(F)(F)F)c4)cccc3c2)ncn1,224 to 225
13,OC(C=CCN1CCC(O)(c2ccc(Cl)cc2)CC1)c1ccc(F)cc1 (centres undefined),126 to 127
14,O=C(Nc1cccc(S(=O)(=O)NC2CC2)c1)c1cnn2c(C(F)F)cc(-c3ccc(Cl)c(Cl)c3)nc12,254
15,N#Cc1cc(C2=NOC(c3cc(Cl)cc(Cl)c3)(C(F)(F)F)C2)ccc1-n1cc(Cl)cn1 (centres undefined),190 to 191
16,CC1=CC(=O)C(C)S(=O)(=O)N1C (centres undefined),73 to 75

row,Compound,melting point [°C]
1,Fc1cccc(SCc2nnc(-c3ccc4c(c3)CCO4)o2)c1,55 to 56
2,FC(F)(F)c1ccccc1-c1cccc(C=NNC(=S)NN2CCCC2)n1,142 to 146
3,CCOC(=O)CNC(=O)CNCc1ccc(-c2cc3ncnc(Nc4ccc5[nH]ccc5c4)c3s2)cc1,98 to 115
4,CCCCCCCCCCCC#Cc1ccccc1C=CP(=O)(O)O,82 to 83
5,CC(C)c1ccc(N2Cc3ccc([N+](=O)[O-])cc3C2=O)cc1,225 to 227
6,O=CNc1nc(NC2CC2)nc(N2CCOCC2)n1,288
7,COc1ccc2c3c([nH]c2c1[N+](=O)[O-])C(=O)CC3,228
8,C=CCn1c(=O)c2cnc(Nc3ccc(N4CCN(C)CC4)cc3)nc2n(C(C)C)c1=O,176 to 177
9,COC(=O)NCc1cc(OC)cc(Cl)c1Cl,90 to 91
10,Cc1nc(Cl)c(C#N)nc1C,83 to 85
11,O=C1C(CCC(O)c2ccc(F)cc2)C(c2ccc(-c3ccc(O)cc3)cc2)N1c1ccc(F)cc1 (centres undefined),110
12,COc1cn(-c2ccc(N3CC(F)(F)C(F)(F)C3)cc2F)nc(-c2ccnn2-c2ccccc2)c1=O,175 to 177
13,COCc1nccc(SCCCSc2ccc3ncc([N+](=O)[O-])n3n2)c1C,107 to 110
14,C[C@@H](NC(=O)OC(C)(C)C)c1nc2c(Cl)cccc2s1,95 to 96
15,CCn1ncc2c1ncc1c(=O)n(CCN3CCOCC3)c3cc(C)nn3c12,140 to 141

# More lines, now with the values ahead:
row,melting point [°C],Compound
1,136,O=S(=O)(Nc1ccccc1O)c1ccc2ccccc2c1
2,120 to 122,CC(C)C[C@@H](OC(=O)c1cc(Cl)ccn1)C(=O)O
3,220 to 221,O=c1c2c(n(-c3ccccc3)c3ccccc13)OCC2
4,138 to 139,COc1cc(OC)cc(C(NCC(=O)Nc2c(C(C)C)cccc2C(C)C)c2ccccc2C)c1 (centres undefined)
5,195 to 197,O=C(Nc1cc2c(cc1C(=O)c1ccccc1)OCO2)c1ccccc1
6,290 to 292,CCc1c(C)[nH]c2cc(OCCOc3ccccc3)c(Cl)cc2c1=O
7,177 to 182,CCOC(=O)C1=C(CS(=O)(=O)c2ccccc2)Nc2ccnc(OC(C)C)c2C1c1ccccc1C(F)(F)F (centres undefined)
8,79.5 to 81,CC1(C)C=C(c2ccccc2)c2ccccc2N1
9,102,O=C(O)C1Oc2cc3onc(-c4ccccc4)c3c(Cl)c2O1 (centres undefined)
10,183 to 185,CC(C)(C)OC(=O)N1CCn2c(c(C(N)=O)c(Cl)c2-c2ccccc2)C1
11,150 to 154,CC(C)C[C@H](NC(=O)c1ccccc1)C(=O)N[C@@H](C(C)C)[C@@H](O)c1c(-c2ccccc2)c1=O
12,102 to 106,COc1ccccc1Oc1c(NS(=O)(=O)c2ccc(C(C)(C)C)cc2)nc(NCCN(C)C)nc1OCCO
13,173 to 175,CCOC(=O)c1sc2nc(-c3ccccc3)cnc2c1N
14,203 to 205,COC(=O)C1=C(C)NC(C)=C(NC(=O)Nc2ccccc2)C1c1ccccc1Cl (centres undefined)
15,85 to 86,CC(Oc1ncnc2ccccc12)c1ccc(C(C)(C)C)cc1 (centres undefined)
16,181 to 183,O=C1c2ccccc2C(=O)N1CC(Cc1ccc([N+](=O)[O-])cc1)=NO
17,214 to 216,CONS(=O)(=O)c1ccc(C(=O)C=Cc2cc(-c3cc4ccccc4n3C)c(OC)cc2OC)cc1
18,103 to 107,CN1CCN(CCOc2ccc([C@H]3c4ccc(OCc5ccccc5)cc4OC[C@H]3c3ccccc3)cc2)CC1 (racemic)

# — a melting point compilation (Tetko et al.; mined from patent text by program, amines drawn as free bases though some values may be those of a salt)
